Data on eight compounds can be found in PMC7126861 (Bioorganic & Medicinal Chemistry Letters, 2010).

The assay concerns the target SARS-CoV 3CL^pro (Severe acute respiratory syndrome coronavirus, UniProt P0C6X7). Nature of the assay: biochemical.
On to `N#Cc1c(-c2ccccc2)nc(SCc2ccccc2)[nH]c1=O` [Compound 6a], for which the IC50 was greater than 50 µM.
The figure for `N#Cc1c(-c2ccccc2)nc(SCCc2ccccc2)[nH]c1=O` [Compound 6b] is greater than 50 µM; for `COc1ccc(-c2nc(SCc3ccccc3)[nH]c(=O)c2C#N)cc1` [Compound 6d] it is greater than 50 µM.
The figure for `Cc1ccc(-c2nc(SCc3ccccc3)[nH]c(=O)c2C#N)cc1` [Compound 6g] is greater than 50 µM; for `Cc1ccc(-c2nc(SCCc3ccccc3)[nH]c(=O)c2C#N)cc1` [Compound 6h] it is greater than 50 µM.
Next, `Cc1ccc(-c2nc(SCc3ccc([N+](=O)[O-])cc3)[nH]c(=O)c2C#N)cc1` [Compound 6i]: greater than 50 µM; `N#Cc1c(-c2cccc([N+](=O)[O-])c2)nc(SCCc2ccccc2)[nH]c1=O` [Compound 6j]: greater than 50 µM; `N#Cc1c(-c2cccc(Cl)c2)nc(SCc2ccccc2)[nH]c1=O` [Compound 6n]: greater than 50 µM.

As usually defined, the IC50 is the concentration that gives 50% inhibition.
